Experimental data reported in patent US20140296216A1, “PYRIMIDO[4,5-D]PYRIMIDINYL COMPOUNDS, PHARMACEUTICAL COMPOSITIONS AND USES THEREOF” (GUANGZHOU INSTITUTE OF BIOMEDICINE AND HEALTH, CHINESE …, priority 2011, published 2014).

What was measured:
[1] = tested on: EGFR phosphorylation in H1975 Cell; test: Western Blot, cell signaling pathway in H1975 cell; type: cell-based; details: FIG. 30
Protocol: Conventional Western Blot (Immune blotting method) was used, wherein the method includes four steps: sample preparation, electrophoretic separation, film transfer of protein, and immuno hybridization and color display (protein detection). Sample preparation • 1. culturing cells or treating the cells with drugs; • 2. discarding mediums, washing the cells with 1×PBS twice to completely remove the mediums; • 3. adding 1×SDS sample buffer (6-well plate, 100 μl/w or 75 cm^2 plate, 500-1000 μl/bottle), scrapping the cells and transferring them to Ep tube; • 4. ultrasonic shearing DNA for 10-15 seconds to reduce the viscosity of the sample; • 5. boiling the sample for 5 minutes; • 6. centrifuging 12000 g sample for 5 minutes and taking the supernatant. […]

[2] = tested on: NCI-H820 (lung cancer cells); test: Cell proliferation by MTT, NCI-H820; type: cell-based; details: NCI-H820, read-out: NCI-H820 50% inhibitory concentration (IC50), 72 h
EGFRL858R + T790M = EGFRL858R + T790M (Homo sapiens, UniProt P00533, L858R/T790M); test: In vitro enzymatic activity assay (Z'-LYTE), EGFR L858R + T790M; type: biochemical; details: Z'-LYTE FRET peptide assay; read-out: EGFRL858R + T790M kinase activity (IC50)
Chain of EGFRL858R + T790M (P00533 25-1210 T790M/L858R): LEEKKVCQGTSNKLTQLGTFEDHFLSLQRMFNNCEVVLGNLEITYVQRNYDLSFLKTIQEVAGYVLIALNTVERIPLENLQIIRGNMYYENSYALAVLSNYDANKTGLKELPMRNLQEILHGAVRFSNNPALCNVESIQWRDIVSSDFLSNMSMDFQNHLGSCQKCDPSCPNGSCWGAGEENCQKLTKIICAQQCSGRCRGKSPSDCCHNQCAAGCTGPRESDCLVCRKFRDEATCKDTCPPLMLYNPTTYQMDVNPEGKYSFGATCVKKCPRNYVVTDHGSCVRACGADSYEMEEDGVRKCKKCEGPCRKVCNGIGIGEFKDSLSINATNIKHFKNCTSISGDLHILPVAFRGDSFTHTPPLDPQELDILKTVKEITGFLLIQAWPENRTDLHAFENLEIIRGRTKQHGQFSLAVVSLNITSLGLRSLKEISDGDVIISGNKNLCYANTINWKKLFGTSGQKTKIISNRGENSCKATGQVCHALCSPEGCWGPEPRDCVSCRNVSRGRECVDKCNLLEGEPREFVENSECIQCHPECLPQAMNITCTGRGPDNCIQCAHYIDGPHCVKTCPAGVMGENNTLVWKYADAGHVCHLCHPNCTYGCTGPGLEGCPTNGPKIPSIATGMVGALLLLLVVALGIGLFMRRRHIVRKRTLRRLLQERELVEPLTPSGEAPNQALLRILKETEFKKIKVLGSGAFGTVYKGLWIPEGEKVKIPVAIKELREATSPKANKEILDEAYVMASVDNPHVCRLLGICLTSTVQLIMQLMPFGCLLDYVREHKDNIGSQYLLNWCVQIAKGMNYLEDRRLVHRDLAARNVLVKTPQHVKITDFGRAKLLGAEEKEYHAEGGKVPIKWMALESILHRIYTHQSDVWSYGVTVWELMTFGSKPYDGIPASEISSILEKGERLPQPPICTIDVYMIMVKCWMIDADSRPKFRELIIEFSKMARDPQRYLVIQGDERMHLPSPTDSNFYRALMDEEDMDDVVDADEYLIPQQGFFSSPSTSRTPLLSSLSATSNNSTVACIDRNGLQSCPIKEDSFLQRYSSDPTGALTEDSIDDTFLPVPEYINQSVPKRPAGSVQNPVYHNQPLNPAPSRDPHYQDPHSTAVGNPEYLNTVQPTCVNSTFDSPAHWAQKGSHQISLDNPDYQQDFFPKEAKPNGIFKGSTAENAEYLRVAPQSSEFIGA
Method in brief: (§1)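 Z'-LYTE FRET coupled-enzyme format: kinase phosphorylates FRET peptide substrate, then after one hour a site-specific protease cleaves non-phosphorylated peptide. After another hour, excitation at 400 nm and emission read at 445 and 520 nm.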

EGFR T790M kinase = molecular target: T1, EGFR T790M kinase (Homo sapiens, UniProt P00533, T790M); test: In vitro enzymatic activity assay (Z'-LYTE), EGFR T790M; type: biochemical; details: Z'-LYTE FRET peptide assay; read-out: EGFRT790M kinase activity (IC50)
T1 construct: purchased invitrogen PV4803
Method in brief: as §1

EGFRWT = EGFRWT (Homo sapiens, UniProt P00533); test: In vitro enzymatic activity assay (Z'-LYTE), wild type EGFR; type: biochemical; details: Z'-LYTE FRET peptide assay; read-out: EGFRWT kinase activity (IC50)
Chain of EGFRWT (P00533 25-1210): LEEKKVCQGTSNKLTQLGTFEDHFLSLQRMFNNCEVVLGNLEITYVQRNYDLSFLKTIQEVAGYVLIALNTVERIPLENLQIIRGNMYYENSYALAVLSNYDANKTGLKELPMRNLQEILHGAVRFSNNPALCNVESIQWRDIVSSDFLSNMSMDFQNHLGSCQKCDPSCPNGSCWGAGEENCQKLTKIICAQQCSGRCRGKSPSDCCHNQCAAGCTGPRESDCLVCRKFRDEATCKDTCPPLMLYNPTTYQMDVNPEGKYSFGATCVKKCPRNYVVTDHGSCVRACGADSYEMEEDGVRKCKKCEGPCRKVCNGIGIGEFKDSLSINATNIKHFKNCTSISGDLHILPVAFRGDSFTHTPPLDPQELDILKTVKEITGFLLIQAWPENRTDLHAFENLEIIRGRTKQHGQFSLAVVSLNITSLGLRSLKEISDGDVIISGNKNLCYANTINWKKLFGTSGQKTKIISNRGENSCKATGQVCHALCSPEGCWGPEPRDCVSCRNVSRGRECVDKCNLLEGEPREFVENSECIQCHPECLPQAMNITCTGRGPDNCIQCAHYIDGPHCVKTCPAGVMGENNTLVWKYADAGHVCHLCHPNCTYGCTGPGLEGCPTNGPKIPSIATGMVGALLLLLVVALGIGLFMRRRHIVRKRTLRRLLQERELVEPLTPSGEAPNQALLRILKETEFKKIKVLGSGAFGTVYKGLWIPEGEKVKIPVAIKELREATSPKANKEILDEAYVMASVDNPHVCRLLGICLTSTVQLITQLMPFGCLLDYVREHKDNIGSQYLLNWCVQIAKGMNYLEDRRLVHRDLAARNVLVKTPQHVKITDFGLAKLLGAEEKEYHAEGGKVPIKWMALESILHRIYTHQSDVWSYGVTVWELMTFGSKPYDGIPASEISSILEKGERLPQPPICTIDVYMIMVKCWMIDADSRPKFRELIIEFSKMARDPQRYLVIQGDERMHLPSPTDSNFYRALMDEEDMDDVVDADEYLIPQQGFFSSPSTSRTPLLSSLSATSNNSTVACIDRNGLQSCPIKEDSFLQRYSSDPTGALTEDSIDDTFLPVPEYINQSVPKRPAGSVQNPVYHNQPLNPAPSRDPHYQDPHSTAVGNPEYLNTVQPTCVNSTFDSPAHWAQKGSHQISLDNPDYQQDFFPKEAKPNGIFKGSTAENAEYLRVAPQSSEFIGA
Method in brief: as §1

EGFRL858R = EGFRL858R (Homo sapiens, UniProt P00533, L858R); test: In vitro enzymatic activity assay (Z'-LYTE), EGFR L858R; type: biochemical; details: Z'-LYTE FRET peptide assay; read-out: EGFRL858R kinase activity (IC50)
Chain of EGFRL858R (P00533 25-1210 L858R): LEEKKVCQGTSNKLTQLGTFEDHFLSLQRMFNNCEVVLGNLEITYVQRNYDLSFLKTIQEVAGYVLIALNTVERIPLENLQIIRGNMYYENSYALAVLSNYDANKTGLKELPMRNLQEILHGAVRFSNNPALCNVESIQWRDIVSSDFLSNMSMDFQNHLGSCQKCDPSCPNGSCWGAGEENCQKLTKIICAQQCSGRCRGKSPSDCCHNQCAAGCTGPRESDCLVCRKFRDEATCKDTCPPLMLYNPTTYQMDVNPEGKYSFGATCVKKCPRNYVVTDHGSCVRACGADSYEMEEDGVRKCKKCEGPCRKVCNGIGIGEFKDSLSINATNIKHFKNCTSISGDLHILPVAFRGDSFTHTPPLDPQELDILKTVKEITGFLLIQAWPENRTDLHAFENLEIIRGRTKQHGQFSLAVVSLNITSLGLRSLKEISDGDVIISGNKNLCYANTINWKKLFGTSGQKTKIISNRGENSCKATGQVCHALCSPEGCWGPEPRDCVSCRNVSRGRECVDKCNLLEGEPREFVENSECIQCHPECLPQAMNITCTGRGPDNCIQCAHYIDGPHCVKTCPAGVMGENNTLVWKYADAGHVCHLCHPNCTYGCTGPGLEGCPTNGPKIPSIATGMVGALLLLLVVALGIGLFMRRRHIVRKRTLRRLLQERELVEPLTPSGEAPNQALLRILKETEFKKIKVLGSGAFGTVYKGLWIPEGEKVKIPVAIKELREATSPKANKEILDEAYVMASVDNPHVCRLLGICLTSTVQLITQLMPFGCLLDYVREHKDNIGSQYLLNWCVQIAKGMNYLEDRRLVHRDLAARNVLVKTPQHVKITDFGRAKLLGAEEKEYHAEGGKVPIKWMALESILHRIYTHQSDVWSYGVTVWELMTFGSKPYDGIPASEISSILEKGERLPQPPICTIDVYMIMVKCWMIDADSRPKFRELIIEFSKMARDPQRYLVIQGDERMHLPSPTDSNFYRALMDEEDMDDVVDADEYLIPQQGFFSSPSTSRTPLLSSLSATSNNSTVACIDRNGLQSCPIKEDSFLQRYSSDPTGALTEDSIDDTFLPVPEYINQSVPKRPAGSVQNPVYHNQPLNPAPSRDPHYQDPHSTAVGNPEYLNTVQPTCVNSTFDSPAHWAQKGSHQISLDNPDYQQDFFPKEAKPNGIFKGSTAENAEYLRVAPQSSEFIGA
Method in brief: as §1

[3] = tested on: HCC827 (lung cancer cells, EGFR E746-A750 deletion); test: Cell proliferation by MTT, HCC827; type: cell-based; details: Homo sapiens, HCC827, read-out: HCC827 50% inhibitory concentration (IC50), 72 h
H1975 cell [4] = test: Effect on cell apoptosis by Annexin V; type: cell-based; details: PE-Annexin V, 24, 48 h; FIG. 29
Protocol: Detecting the effect of the compounds on cell apoptosis by Annexin V: 8×10^5 cells/well, NCI-H820, A431, HCC827, EGFR E746-A750 deletion, H1975 were plated in 6-well plates, and 24 h later, treated with the compounds at various concentrations and a control (1% DMSO) for 24, 48 h. Growth medium was collected and cells were trypsined and collected correspondingly to the medium. Suspension (500 g) was centrifuged for 10 minutes. The cells were re-suspended in PBS to get a suspension and then the suspension (500 g) centrifuged for 10 min; this step was repeated twice. The cells were re-suspended in binding buffer, 5×10^5-1×10^6 cells/mL. PE-Annexin V (556421, BD Pharmingen) […] respectively. The cells were incubated for 15 min at RT in the dark. The samples were detected with FACS Calibur flow cytometer (Becton Dickinson).

[5] = tested on: A431 (Human epidermal carcinoma, EGFR high expression); test: Cell proliferation by MTT, A431; type: cell-based; details: A-431, read-out: A431 50% inhibitory concentration (IC50), 72 h
[6] = tested on: H1975 (lung cancer cells, EGFR L858R&T790M); test: Cell proliferation by MTT, H1975; type: cell-based; details: Homo sapiens, NCI-H1975, read-out: H1975 50% inhibitory concentration (IC50), 72 h
H1975 cell [7] = test: Effect on cell cycle by PI; type: cell-based; details: PI staining, 24, 48 h; FIGS. 27, 28
Protocol: Detecting the effect of the compounds on cell cycle by PI: 8×10^5 cells/well, NCI-H820, A431, HCC827, EGFR E746-A750 deletion, H1975 were plated in 6-well plates, and 24 h later, treated with the compounds at various concentrations and a control (1% DMSO) for 24, 48 h. Cells were trypsined, collected and then centrifuged for 10 minutes. The cells were re-suspended in PBS to get a suspension and then the suspension (500 g) centrifuged for 10 min; this step was repeated twice: firstly 300 uL pre-cooled PBS was added and mixed, then 700 uL pre-cooled (i.e. −20° C.) anhydrous ethanol was added and mixed, placed in −20° C. for 24 h. The mixture was 5000 rpm centrifuged for 2 min, washed by PBS twice, resuspended with 200 uL PBS (it needs to ensure the cell concentration as about […]), added RNase to achieve the final concentration of 50 ug/mL, and […] at 37° C. for 30 min. The mixture was added PI achieve the final concentration of 10 ug/mL, dyed in dark for 30 min, and then detected within 1 h.

EGFRL861Q = EGFRL861Q (Homo sapiens, UniProt P00533, L861Q); test: In vitro enzymatic activity assay (Z'-LYTE), EGFR L861Q; type: biochemical; details: Z'-LYTE FRET peptide assay; read-out: EGFRL861Q kinase activity (IC50)
Chain of EGFRL861Q (P00533 25-1210 L861Q): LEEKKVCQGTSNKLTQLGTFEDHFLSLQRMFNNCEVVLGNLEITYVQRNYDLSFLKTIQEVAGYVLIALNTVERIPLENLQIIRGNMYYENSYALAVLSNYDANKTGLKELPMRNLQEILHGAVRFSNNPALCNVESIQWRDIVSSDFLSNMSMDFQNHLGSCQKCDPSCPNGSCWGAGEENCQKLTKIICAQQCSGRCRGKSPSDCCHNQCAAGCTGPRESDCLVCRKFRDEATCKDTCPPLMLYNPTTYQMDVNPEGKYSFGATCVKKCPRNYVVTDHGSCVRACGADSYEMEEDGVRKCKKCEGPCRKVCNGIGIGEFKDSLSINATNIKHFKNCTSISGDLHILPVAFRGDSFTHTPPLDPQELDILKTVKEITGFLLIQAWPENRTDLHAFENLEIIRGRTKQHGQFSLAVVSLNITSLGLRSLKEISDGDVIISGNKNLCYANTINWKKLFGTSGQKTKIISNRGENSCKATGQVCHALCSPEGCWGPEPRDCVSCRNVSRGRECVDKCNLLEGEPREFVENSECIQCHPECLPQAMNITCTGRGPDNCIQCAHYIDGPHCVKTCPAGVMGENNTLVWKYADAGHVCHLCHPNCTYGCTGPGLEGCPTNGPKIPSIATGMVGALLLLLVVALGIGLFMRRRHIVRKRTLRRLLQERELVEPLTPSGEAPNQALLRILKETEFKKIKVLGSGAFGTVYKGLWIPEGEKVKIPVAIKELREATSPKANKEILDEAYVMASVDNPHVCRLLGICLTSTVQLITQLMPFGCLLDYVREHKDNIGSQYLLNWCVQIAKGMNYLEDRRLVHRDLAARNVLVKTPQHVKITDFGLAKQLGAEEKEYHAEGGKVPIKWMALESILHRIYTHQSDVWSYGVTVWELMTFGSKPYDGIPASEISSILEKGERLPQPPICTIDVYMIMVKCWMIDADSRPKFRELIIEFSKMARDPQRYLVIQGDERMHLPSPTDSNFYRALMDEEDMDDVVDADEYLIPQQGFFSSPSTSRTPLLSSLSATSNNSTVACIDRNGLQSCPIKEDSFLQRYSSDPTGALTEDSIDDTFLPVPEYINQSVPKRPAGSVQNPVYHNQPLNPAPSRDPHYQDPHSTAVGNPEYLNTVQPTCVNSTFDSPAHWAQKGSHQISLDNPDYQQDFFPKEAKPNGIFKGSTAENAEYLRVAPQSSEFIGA
Method in brief: as §1

EGFR kinase = test: In vitro kinase assays of FIGS. 1-22 (WT EGFR and EGFR T790M), inhibition at fixed concentration; type: biochemical; details: 1 μM; FIGS. 1-22 (WT EGFR, EGFR T790M)
Protocol: In vitro enzymatic activity assay: using Z′-LYTE™ technology (detect fluorescence, coupled-enzyme format, based on the differential sensitivity of phosphorylated and non-phosphorylated peptides to proteolytic cleavage), based on FRET, using Z′ LYTE™ FRET peptide substrate, detect the activity of compounds against enzymatic. (invitrogen, Z′-LYTE™ KINASE ASSAY KIT-TYR 2 PEPTIDE, PV3191) EGFR T790M kinase (invitrogen, PV4803) was diluted progressively, then FRET-peptide, ATP and different concentrations of compound are added to the solution. After one hour, site specific protease which can recognize and cleaves non-phosphorylated FRET-peptide. After another hour, using an excitation wavelength of 400 nm excites, then detect the […] at 445 nm and 520 nm.
In the enzymatic activity assay of 7-(substituted amino)-3,4-dihydropyrimido[4,5-d]pyrimidin-(1H)-ones against the EGFR kinase, due to the presence of the irreversible Michael addition reaction with the protein cysteine sites, some compounds show a relatively good inhibitive activity to both the two kinases. […] The R1 of 7-(substituted amino)-3,4-dihydropyrimido[4,5-d]pyrimidin-(1H)-ones plays a key role in the interaction between compounds and protein, especially when R1 is aryl, it can get the best activity. […]

Question: `C=CC(=O)Nc1cccc(N2C(=O)N(C)Cc3cnc(Nc4ccc(N5CCN(C)CC5)cc4OC)nc32)c1` [C-EGF06, N-(3-(7-(2-methoxy-4-(4-methylpiperazin-1-yl)phenylamino)-3-methyl-2-oxo-3,4-dihydropyrimido[4,5-d]pyrimidin-1(2H)-yl)phenyl)acrylamide] was tested. Which EGFR phosphorylation arrest [1] did it give?
Answer: significantly induce EGFR phosphorylation arrest

Question: What about the downstream pathway phosphorylation [1] of the same molecule?
Answer: further block

Question: And the IC50 [2]?
Answer: > 100 µM

Question: What about the IC50 (EGFRL858R + T790M) of the same molecule?
Answer: ≤ 0.01 µM

Question: What about the IC50 (EGFR T790M kinase) of the same molecule?
Answer: ≤ 0.01 µM

Question: What about the IC50 (EGFRWT) of the same molecule?
Answer: ≤ 0.01 µM

Question: And the IC50 (EGFRL858R)?
Answer: ≤ 0.01 µM

Question: What about the IC50 [3] of the same molecule?
Answer: 0.052 µM

Question: And the cell apoptosis (H1975 cell [4])?
Answer: significantly induce

Question: What about the IC50 [5] of the same molecule?
Answer: 2.93 µM

Question: And the IC50 [6]?
Answer: 0.085 µM

Question: And the cell cycle arrest (H1975 cell [7])?
Answer: significantly induce

Question: What about the IC50 (EGFRL861Q) of the same molecule?
Answer: ≤ 0.01 µM

Question: What does the source list for `COc1cc(N2CCN(C)CC2)ccc1Nc1ncc2c(n1)N(c1cccc(N)c1)C(=O)N(C)C2` [C-EGF33, 1-(3-aminophenyl)-7-(2-methoxy-4-(4-methylpiperazin-1-yl)phenylamino)-3-methyl-3,4-dihydropyrimido[4,5-d]pyrimidin-2(1H)-one]?
Answer: IC50 (EGFRL858R + T790M): 1 to 10 µM; IC50 (EGFR T790M kinase): 1 to 10 µM; IC50 (EGFRWT): 0.1 to 1 µM; inhibitive activity for inhibiting a kinase at a relatively high test concentration (EGFR kinase): poor; IC50 (EGFRL858R): 0.1 to 1 µM; IC50 [3]: 4.89 µM; IC50 [5]: > 30 µM; IC50 [6]: > 20 µM; IC50 (EGFRL861Q): 1 to 10 µM

Question: For `C=CC(=O)Nc1cccc(N2C(=O)N(C)Cc3cnc(Nc4ccc(N5CCCC5)cc4OC)nc32)c1` [C-EGF12, N-(3-(7-(2-methoxy-4-(pyrrolidin-1-yl)phenylamino)-3-methyl-2-oxo-3,4-dihydropyrimido[4,5-d]pyrimidin-1(2H)-yl)phenyl)acrylamide], which IC50 [2] is on record?
Answer: 35.6 µM

Question: And the IC50 (EGFRL858R + T790M)?
Answer: 0.01 to 0.1 µM

Question: And the IC50 (EGFR T790M kinase)?
Answer: 0.1 to 1 µM

Question: What about the IC50 (EGFRWT) of the same molecule?
Answer: 0.01 to 0.1 µM

Question: What about the IC50 (EGFRL858R) of the same molecule?
Answer: 0.01 to 0.1 µM

Question: What about the IC50 [3] of the same molecule?
Answer: 0.409 µM

Question: What about the IC50 [5] of the same molecule?
Answer: 8.16 µM

Question: And the IC50 [6]?
Answer: 1.53 µM

Question: What about the IC50 (EGFRL861Q) of the same molecule?
Answer: ≤ 0.01 µM

Question: Which results are given for `C=CC(=O)Nc1cccc(N2C(=O)N(C)Cc3cnc(Nc4ccc(N5CCCN(C)CC5)cc4OC)nc32)c1` [C-EGF17, N-(3-(7-(2-methoxy-4-(4-methyl-1,4-diazepan-1-yl)phenylamino)-3-methyl-2-oxo-3,4-dihydropyrimido[4,5-d]pyrimidin-1(2H)-yl)phenyl)acrylamide]?
Answer: IC50 [2]: > 100 µM; IC50 (EGFRL858R + T790M): ≤ 0.01 µM; IC50 (EGFR T790M kinase): ≤ 0.01 µM; IC50 (EGFRWT): ≤ 0.01 µM; IC50 (EGFRL858R): ≤ 0.01 µM; IC50 [3]: 0.062 µM; IC50 [5]: 11.1 µM; IC50 [6]: 0.71 µM; IC50 (EGFRL861Q): ≤ 0.01 µM
